These are literature values, as cited in US10463045B2, “Agrochemical composition” (Nippon Soda Co., Ltd., priority 2015, dated 2019).

In brackets after ≈: the same amount, converted by molar mass. Read-outs that look alike come from different tables or passages of the source.

Consider “5-butyl-2-dimethylamino-6-methylpyridin-4-ol [dimethirimol]”, for which, for the setting “25° C.”, the solubility in water is given as 1,200 mg/l.

For `ClC=CCCl` [D-D, 1,3-dichloropropene], the solubility in water (E form, 20° C.) is 2,520 mg/l and the solubility in water (Z form, 20° C.) is 2,450 mg/l.

On to `CC(C)N1C(=O)c2ccccc2NS1(=O)=O` [bentazon, 3-isopropyl-1H-2,1,3-benzothiadiazin-4(3H)-one-2,2-dioxide], for which the solubility in water (20° C.) was 570 mg/L (≈ 2370 µM).

As for `CN(CC[C@H](N)CC(=O)N[C@H]1C=C[C@H](n2ccc(N)nc2=O)O[C@@H]1C(=O)O)C(=N)N` [blasticidin S, 1-(4-amino-1,2-dihydro-2-oxopyrimidin-1-yl)-4-[(S)-3-amino-5-(1-methyl-guanidino)valeramido]-1,2,3,4,-tetradioxy-β-D-erythrohexy-2-enopyranuronic acid], the solubility in water (20° C.) was 30,000 mg/l.

Regarding `CC(C1CC1)C(O)(Cn1cncn1)c1ccc(Cl)cc1` (stereo not drawn) [cyproconazole, 2-(4-chlorophenyl)-3-cyclopropyl-1-(1H-1,2,4-triazol-1-yl) butan-2-ol], where the note is “pH 6.9”, the solubility in water is 100 mg/L (≈ 343 µM).

With `CN1CSC(=S)N(C)C1` [dazomet, 3,5-dimethyl-tetrahydro-2H-1,3,5-thiadiazine-2-thione], the solubility in water (20° C.) is reported as 3,500 mg/l.

`N#CCNC(=O)c1cnccc1C(F)(F)F` [flonicamid]: for the setting “20° C.”, the solubility in water is recorded as 5,200 mg/l.

As to `CNC(=O)ON=C(C)SC` [methomyl, S-methyl-N-(methylcarbamoyloxy) thioacetimidate], where the note is “20° C., pH 7”, the solubility in water is 46,000 mg/l.
